The values below come from patent US9371336B2, “Compounds for treating spinal muscular atrophy” (PTC Therapeutics Inc., priority 2012, dated 2016).

The subject of one data set is Smn protein. As to the kind of experiment: Smn protein assay (HTRF) in cultured cells (SMA patient fibroblasts GM03813). The class given is cell-based, human. As to conditions: 48 hours; for maximum fold (Fold) increase of Smn protein: SMA patient fibroblast cells, 7-point concentration curve, relative to vehicle control; for EC1.5x for Smn protein expression: SMA patient fibroblast cells (GM03813), HTRF, 7-point concentration data, concentration producing 1.5 times Smn protein vs DMSO vehicle control. In short, it runs like this:
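SMA patient fibroblasts (GM03813) were treated 48 h at 37° C with a 7-point, 3.16-fold compound series in triplicate, then lysed in RIPA. Smn was read by HTRF (anti-SMN d2/kryptate, 665/620 nm ratio). ΔF versus blank was divided by vehicle ΔF to give fold Smn increase.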

Data set [1] has as its system SMN2 minigene mRNA (SMN2-A minigene construct). Kind of data set: SMN2 minigene mRNA splicing RT-qPCR assay in cultured cells. It is filed as cell-based, human. Particulars: Homo sapiens, HEK293-H; HEK293H cells stably transfected with SMN2-A minigene, 24 hours, 7-point concentration data; concentration giving 1.5-fold SMN2 full length mRNA relative to vehicle-treated cells; read-out: EC1.5x for production of full length SMN2 mRNA. In a few lines:
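Full-length SMN2 minigene mRNA, measured by exon 7/luciferase-specific RT-qPCR that excludes endogenous SMN1/SMN2, was normalized to GAPDH and expressed relative to vehicle-treated cells via modified ΔΔCt. Stably transfected HEK293H cells received compound (7-point, 3.16-fold series, duplicates) for 24 h at 37 °C.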

Bounds are passed on as bounds.

In turn, `C[C@@H]1CN[C@@H](C)CN1c1ccc2cc(-c3nc4c(Cl)cccc4s3)c(=O)oc2n1` [Cpd 85, 3-(4-chloro-1,3-benzothiazol-2-yl)-7-[(2R,5S)-2,5-dimethylpiperazin-1-yl]-2H-pyrano[2,3-b]pyridin-2-one] returned a melting point of 223 to 227 °C. Moreover, in the data set with Smn protein, the “maximum fold (Fold) increase of Smn protein” value (shortened to “maximum fold (Fold) increase”) is “** (a fold increase between >1.2 and ≦1.35 is indicated by two stars (**))”. Besides, the EC (1.5-fold) in data set [1] was 0.1 to 0.3 µM.

Compound `C[C@@H]1CN(C)[C@@H](C)CN1c1ccc2cc(-c3nc4c(Cl)cccc4s3)c(=O)oc2n1` [Cpd 86, 3-(4-chloro-1,3-benzothiazol-2-yl)-7-[(2R,5S)-2,4,5-trimethylpiperazin-1-yl]-2H-pyrano[2,3-b]pyridin-2-one] yielded a melting point of 233 to 234 °C. Besides, the “maximum fold (Fold) increase” value in the data set with Smn protein is “** (a fold increase between >1.2 and ≦1.35 is indicated by two stars (**))”. In addition, in data set [1], the EC (1.5-fold) lay within 0.3 to 1 µM.

For the compound `CCN1CCN(c2ccc3cc(-c4cn5cc(C)cc(F)c5n4)c(=O)oc3n2)CC1` [Cpd 134, 7-(4-ethylpiperazin-1-yl)-3-(8-fluoro-6-methylimidazo[1,2-a]pyridin-2-yl)-2H-pyrano[2,3-b]pyridin-2-one], the melting point was in the range of 238 to 242 °C. Besides, in the data set on Smn protein, the “EC1.5x for Smn protein expression” value is “* (An EC1.5× for Smn protein expression between >3 μM and ≦10 μM is indicated by one star (*))”; the “maximum fold (Fold) increase” value was “*** (a fold increase between >1.35 and ≦1.5 is indicated by three stars (***))”. Moreover, the EC (1.5-fold) in data set [1] was in the range of 0.1 to 0.3 µM.

As for `CN1CCCN(c2ccc3cc(-c4cn5ccccc5n4)c(=O)oc3n2)CC1` [Cpd 48, 3-(imidazo[1,2-a]pyridin-2-yl)-7-(4-methyl-1,4-diazepan-1-yl)-2H-pyrano[2,3-b]pyridin-2-one], the melting point fell in the range of 271 to 274 °C. For the same compound, in the data set on Smn protein, the “EC1.5x for Smn protein expression” value was “*** (an EC1.5× between >0.3 μM and ≦1 μM is indicated by three stars (***))”; the “maximum fold (Fold) increase” value is “**** (a fold increase between >1.5 and ≦1.65 is indicated by four stars (****))”. Also, the EC (1.5-fold) in data set [1] lay within 0.1 to 0.3 µM.

Regarding `Cc1cn2cc(-c3cc4ccc(N5C[C@H](C)N(C)C[C@H]5C)nc4oc3=O)nc2c(C)n1` [Cpd 123, 3-(6,8-dimethylimidazo[1,2-a]pyrazin-2-yl)-7-[(2R,5S)-2,4,5-trimethylpiperazin-1-yl]-2H-pyran[2,3-b]pyridin-2-one], the melting point was 234 to 236 °C. Also, in the data set on Smn protein, the “EC1.5x for Smn protein expression” value was “*** (an EC1.5× between >0.3 μM and ≦1 μM is indicated by three stars (***))”; the “maximum fold (Fold) increase” value was “**** (a fold increase between >1.5 and ≦1.65 is indicated by four stars (****))”. Moreover, in data set [1], the EC (1.5-fold) lay within 0.1 to 0.3 µM.

With `CN1CCN(c2ccc3cc(-c4cn5cccnc5n4)c(=O)oc3n2)CC1` [Cpd 117, 3-(imidazo[1,2-a]pyrimidin-2-yl)-7-(4-methylpiperazin-1-yl)-2H-pyrano[2,3-b]pyridin-2-one], the melting point fell in the range of 266 to 269 °C. Moreover, in the data set with Smn protein, the “EC1.5x for Smn protein expression” value is “*** (an EC1.5× between >0.3 μM and ≦1 μM is indicated by three stars (***))”; the “maximum fold (Fold) increase” value was “**** (a fold increase between >1.5 and ≦1.65 is indicated by four stars (****))”. In addition, the EC (1.5-fold) in data set [1] lay within 0.1 to 0.3 µM.

With `CN1CCCN(c2ccc3cc(-c4nc5c(Cl)cccc5s4)c(=O)oc3n2)CC1` [Cpd 37, 3-(4-chloro-1,3-benzothiazol-2-yl)-7-(4-methyl-1,4-diazepan-1-yl)-2H-pyrano[2,3-b]pyridin-2-one], the melting point is 263 to 265 °C. In addition, in the data set on Smn protein, the “EC1.5x for Smn protein expression” value was “** (an EC1.5× between >1 and ≦3 μM is indicated by two stars (**))”; the “maximum fold (Fold) increase” value was “*** (a fold increase between >1.35 and ≦1.5 is indicated by three stars (***))”. Further, in data set [1], the EC (1.5-fold) was no more than 0.1 µM.

As to `CCN1CCCN(c2ccc3cc(-c4cn5cccc(Cl)c5n4)c(=O)oc3n2)CC1` [Cpd 141, 3-(8-chloroimidazo[1,2-a]pyridin-2-yl)-7-(4-ethyl-1,4-diazepan-1-yl)-2H-pyrano[2,3-b]pyridin-2-one], the melting point fell in the range of 201 to 204 °C. Moreover, in the data set with Smn protein, the “EC1.5x for Smn protein expression” value was “**** (an EC1.5×≦0.3 μM is indicated by four stars (****))”; the “maximum fold (Fold) increase” value was “**** (a fold increase between >1.5 and ≦1.65 is indicated by four stars (****))”. Moreover, the EC (1.5-fold) in data set [1] was no more than 0.1 µM.

In the case of `C[C@@H]1CN(c2ccc3cc(-c4cn5cccc(F)c5n4)c(=O)oc3n2)C[C@H](C)N1` [Cpd 76, 7-[(3R,5S)-3,5-dimethylpiperazin-1-yl]-3-(8-fluoroimidazo[1,2-a]pyridin-2-yl)-2H-pyrano[2,3-b]pyridin-2-one], the melting point lay in the range of 247 to 249 °C. Besides, in the data set with Smn protein, the “EC1.5x for Smn protein expression” value is given as “**** (an EC1.5×≦0.3 μM is indicated by four stars (****))” and the “maximum fold (Fold) increase” value is on record as “***** (a fold increase >1.65 is indicated by five stars (*****))”. Also, the EC (1.5-fold) in data set [1] is no more than 0.1 µM.

Compound `CN1CCN(c2cc3oc(=O)c(-c4nc5c(Cl)cccc5s4)cc3cn2)CC1` [Cpd 11, 3-(4-chloro-1,3-benzothiazol-2-yl)-7-(4-methylpiperazin-1-yl)-2H-pyrano[3,2-c]pyridin-2-one] displayed a melting point of 285 to 288 °C. The “maximum fold (Fold) increase” value in the data set on Smn protein was “* (A maximum fold increase ≦1.2 is indicated by one star (*))”. The EC (1.5-fold) in data set [1] lay in the range of 0.3 to 1 µM.

Consider `O=c1oc2nc(N3CCN(Cc4ccccc4O)CC3)ccc2cc1-c1nc2c(Cl)cccc2s1` [Cpd 6, 3-(4-chloro-1,3-benzothiazol-2-yl)-7-[4-(2-hydroxybenzyl)piperazin-1-yl]-2H-pyrano[2,3-b]pyridin-2-one], for which the melting point lay in the range of 262 to 266 °C. In the data set with Smn protein, the “maximum fold (Fold) increase” value is “** (a fold increase between >1.2 and ≦1.35 is indicated by two stars (**))”. The EC (1.5-fold) in data set [1] is 3 to 30 µM.

The compound `Cc1ccn2cc(-c3cc4ccc(N5CCN(C)CC5)nc4oc3=O)nc2c1` [Cpd 39, 3-(7-methylimidazo[1,2-a]pyridin-2-yl)-7-(4-methylpiperazin-1-yl)-2H-pyrano[2,3-b]pyridin-2-one] registered a melting point of 264 to 268 °C. In the data set with Smn protein, the “EC1.5x for Smn protein expression” value is reported as “**** (an EC1.5×≦0.3 μM is indicated by four stars (****))”; the “maximum fold (Fold) increase” value is “**** (a fold increase between >1.5 and ≦1.65 is indicated by four stars (****))”. Also, the EC (1.5-fold) in data set [1] was no more than 0.1 µM.

`CN1CCCN(c2ccc3cc(-c4nc5ccccc5s4)c(=O)oc3n2)CC1` [Cpd 56, 3-(1,3-benzothiazol-2-yl)-7-(4-methyl-1,4-diazepan-1-yl)-2H-pyrano[2,3-b]pyridin-2-one]: the melting point lay within 274 to 276 °C. In the data set on Smn protein, the “EC1.5x for Smn protein expression” value is “* (An EC1.5× for Smn protein expression between >3 μM and ≦10 μM is indicated by one star (*))”; the “maximum fold (Fold) increase” value was “** (a fold increase between >1.2 and ≦1.35 is indicated by two stars (**))”. Further, in data set [1], the EC (1.5-fold) lay within 0.1 to 0.3 µM.

`Cc1ccn2cc(-c3cc4ccc(N5CCCNCC5)nc4oc3=O)nc2c1` [Cpd 65, 7-(1,4-diazepan-1-yl)-3-(7-methylimidazo[1,2-a]pyridin-2-yl)-2H-pyrano[2,3-b]pyridin-2-one] displayed a melting point of 239 to 241 °C. In addition, in the data set with Smn protein, the “EC1.5x for Smn protein expression” value was “**** (an EC1.5×≦0.3 μM is indicated by four stars (****))”; the “maximum fold (Fold) increase” value is “**** (a fold increase between >1.5 and ≦1.65 is indicated by four stars (****))”. The EC (1.5-fold) in data set [1] is 0.3 to 1 µM.

Compound `Cc1cc(F)c2nc(-c3cc4ccc(N5CCCN(C)CC5)nc4oc3=O)cn2c1` [Cpd 113, 3-(8-fluoro-6-methylimidazo[1,2-a]pyridin-2-yl)-7-(4-methyl-1,4-diazepan-1-yl)-2H-pyrano[2,3-b]pyridin-2-one] came in with a melting point of 269 to 273 °C. In addition, in the data set with Smn protein, the “EC1.5x for Smn protein expression” value was “*** (an EC1.5× between >0.3 μM and ≦1 μM is indicated by three stars (***))”; the “maximum fold (Fold) increase” value was “**** (a fold increase between >1.5 and ≦1.65 is indicated by four stars (****))”. In data set [1], the EC (1.5-fold) was no more than 0.1 µM.

In turn, `C[C@@H]1CN[C@@H](C)CN1c1ccc2cc(-c3cn4cccc(F)c4n3)c(=O)oc2n1` [Cpd 92, 7-[(2R,5S)-2,5-dimethylpiperazin-1-yl]-3-(8-fluoroimidazo[1,2-a]pyridin-2-yl)-2H-pyrano[2,3-b]pyridin-2-one] returned a melting point of 210 to 212 °C. In the data set on Smn protein, the “EC1.5x for Smn protein expression” value is “**** (an EC1.5×≦0.3 μM is indicated by four stars (****))”; the “maximum fold (Fold) increase” value was “**** (a fold increase between >1.5 and ≦1.65 is indicated by four stars (****))”. The EC (1.5-fold) in data set [1] is no more than 0.1 µM.

The compound `Cc1ccc2nc(-c3cc4ccc(N5CCNCC5)nc4oc3=O)cn2c1.Cl` [Cpd 24, 3-(6-methylimidazo[1,2-a]pyridin-2-yl)-7-(piperazin-1-yl)-2H-pyrano[2,3-b]pyridin-2-one hydrochloride] came in with a melting point of 218 to 222 °C. In addition, the “maximum fold (Fold) increase” value with Smn protein was “** (a fold increase between >1.2 and ≦1.35 is indicated by two stars (**))”. Also, the EC (1.5-fold) in data set [1] lay within 0.3 to 1 µM.
